Measured values from ChEMBL document CHEMBL3885861, “Open TG-GATES”.

Species on record: Rattus norvegicus
Assay: Open TG-GATES - Regimen: Single
Type: toxicity, organism-based, Sprague-Dawley
Design: regimen Single, gender Male, age 6 weeks
Conditions: in vivo, po, 100 mg/kg, route gavage, dose level Middle; for APTT / Bas / Eos / Fbg / Hb / Ht / Lym / MCHC / MCV / Mono / Neu / PT / Plat / RBC / Ret / WBC: tissue Blood; for KIDNEY_L / KIDNEY_R / KIDNEY_TOTAL: tissue Kidney; for LIVER: tissue Liver; for ALP / ALT / AST / BUN / CRE / Ca / Cl / DBIL / GLC / IP / K / LDH / Na / PL / RALB / TBIL / TC / TG / TP / gamma-GTP: tissue Plasma

Question: For `CS(=O)(=O)Nc1ccc([N+](=O)[O-])cc1Oc1ccccc1` [NIMESULIDE], which TERMINAL_BW (3 h) is on record?
Answer: 203.6 g

Question: What about the APTT (3 h) of the same molecule?
Answer: 16.7 s

Question: What about the Bas (3 h) of the same molecule?
Answer: 0%

Question: What about the Eos (3 h) of the same molecule?
Answer: 1.2%

Question: And the Fbg (3 h)?
Answer: 201.6 mg/dL

Question: What about the Hb (3 h) of the same molecule?
Answer: 13.1 g/dL

Question: What about the Ht (3 h) of the same molecule?
Answer: 38.3%

Question: And the Lym (3 h)?
Answer: 71.4%

Question: And the MCHC (3 h)?
Answer: 34.3%

Question: And the MCV (3 h)?
Answer: 65.8 fL

Question: And the Mono (3 h)?
Answer: 8.2%

Question: And the Neu (3 h)?
Answer: 19.2%

Question: And the PT (3 h)?
Answer: 12.2 s

Question: And the Plat (3 h)?
Answer: 110 x10_4/uL

Question: And the RBC (3 h)?
Answer: 582.2 x10_4/ul

Question: And the Ret (3 h)?
Answer: 11.3%

Question: What about the WBC (3 h) of the same molecule?
Answer: 87.9 x10_2/uL

Question: And the KIDNEY_L (3 h)?
Answer: 0.9 g

Question: And the KIDNEY_R (3 h)?
Answer: 0.9 g

Question: And the KIDNEY_TOTAL (3 h)?
Answer: 1.8 g

Question: What about the LIVER (3 h) of the same molecule?
Answer: 9.5 g

Question: What about the ALP (3 h) of the same molecule?
Answer: 901.6 IU/L

Question: And the ALT (3 h)?
Answer: 36.2 IU/L

Question: And the AST (3 h)?
Answer: 66.6 IU/L

Question: What about the BUN (3 h) of the same molecule?
Answer: 14 mg/dL

Question: What about the CRE (3 h) of the same molecule?
Answer: 0.6 mg/dL

Question: And the Ca (3 h)?
Answer: 11 mg/dL

Question: What about the Cl (3 h) of the same molecule?
Answer: 105.8 meq/L

Question: What about the DBIL (3 h) of the same molecule?
Answer: 0.06 mg/dL

Question: What about the GLC (3 h) of the same molecule?
Answer: 233.2 mg/dL

Question: And the IP (3 h)?
Answer: 9.6 mg/dL

Question: And the K (3 h)?
Answer: 5 meq/L

Question: What about the LDH (3 h) of the same molecule?
Answer: 93.8 IU/L

Question: What about the Na (3 h) of the same molecule?
Answer: 140.2 meq/L

Question: What about the PL (3 h) of the same molecule?
Answer: 145.4 mg/dL

Question: And the RALB (3 h)?
Answer: 3.9 g/dL

Question: What about the TBIL (3 h) of the same molecule?
Answer: 0.4 mg/dL

Question: And the TC (3 h)?
Answer: 85.2 mg/dL

Question: And the TG (3 h)?
Answer: 54.8 mg/dL

Question: And the TP (3 h)?
Answer: 5.2 g/dL

Question: What about the gamma-GTP (3 h) of the same molecule?
Answer: 1 IU/L

Question: What about the TERMINAL_BW (6 h) of the same molecule?
Answer: 202.6 g

Question: What about the APTT (6 h) of the same molecule?
Answer: 18.2 s

Question: What about the Bas (6 h) of the same molecule?
Answer: 0%

Question: What about the Eos (6 h) of the same molecule?
Answer: 1%

Question: What about the Fbg (6 h) of the same molecule?
Answer: 211.2 mg/dL

Question: And the Hb (6 h)?
Answer: 13.2 g/dL

Question: And the Ht (6 h)?
Answer: 39.2%

Question: What about the Lym (6 h) of the same molecule?
Answer: 73.2%

Question: What about the MCHC (6 h) of the same molecule?
Answer: 33.6%

Question: And the MCV (6 h)?
Answer: 65.7 fL

Question: What about the Mono (6 h) of the same molecule?
Answer: 4.4%

Question: What about the Neu (6 h) of the same molecule?
Answer: 21.8%

Question: What about the PT (6 h) of the same molecule?
Answer: 12.4 s

Question: And the Plat (6 h)?
Answer: 119.2 x10_4/uL

Question: What about the RBC (6 h) of the same molecule?
Answer: 596.6 x10_4/ul

Question: And the Ret (6 h)?
Answer: 9%

Question: What about the WBC (6 h) of the same molecule?
Answer: 69.4 x10_2/uL

Question: What about the KIDNEY_L (6 h) of the same molecule?
Answer: 0.9 g

Question: What about the KIDNEY_R (6 h) of the same molecule?
Answer: 1 g

Question: And the KIDNEY_TOTAL (6 h)?
Answer: 1.9 g

Question: What about the LIVER (6 h) of the same molecule?
Answer: 8.6 g

Question: What about the ALP (6 h) of the same molecule?
Answer: 733.2 IU/L

Question: And the ALT (6 h)?
Answer: 36.4 IU/L

Question: What about the AST (6 h) of the same molecule?
Answer: 67.2 IU/L

Question: What about the BUN (6 h) of the same molecule?
Answer: 14.8 mg/dL

Question: What about the CRE (6 h) of the same molecule?
Answer: 0.7 mg/dL

Question: What about the Ca (6 h) of the same molecule?
Answer: 10.5 mg/dL

Question: And the Cl (6 h)?
Answer: 103.4 meq/L

Question: What about the DBIL (6 h) of the same molecule?
Answer: 0.072 mg/dL

Question: And the GLC (6 h)?
Answer: 258 mg/dL

Question: And the IP (6 h)?
Answer: 10.4 mg/dL

Question: What about the K (6 h) of the same molecule?
Answer: 4.3 meq/L

Question: And the LDH (6 h)?
Answer: 79.6 IU/L

Question: What about the Na (6 h) of the same molecule?
Answer: 139.8 meq/L

Question: And the PL (6 h)?
Answer: 132.8 mg/dL

Question: And the RALB (6 h)?
Answer: 3.7 g/dL

Question: What about the TBIL (6 h) of the same molecule?
Answer: 0.5 mg/dL

Question: What about the TC (6 h) of the same molecule?
Answer: 79.8 mg/dL

Question: And the TG (6 h)?
Answer: 28 mg/dL

Question: What about the TP (6 h) of the same molecule?
Answer: 5.3 g/dL

Question: And the gamma-GTP (6 h)?
Answer: 1.6 IU/L

Question: What about the TERMINAL_BW (9 h) of the same molecule?
Answer: 194.5 g

Question: What about the APTT (9 h) of the same molecule?
Answer: 19.5 s

Question: And the Bas (9 h)?
Answer: 0%

Question: And the Eos (9 h)?
Answer: 0.6%

Question: And the Fbg (9 h)?
Answer: 214.8 mg/dL

Question: And the Hb (9 h)?
Answer: 13.6 g/dL

Question: What about the Ht (9 h) of the same molecule?
Answer: 40.6%

Question: And the Lym (9 h)?
Answer: 79.2%

Question: And the MCHC (9 h)?
Answer: 33.5%

Question: What about the MCV (9 h) of the same molecule?
Answer: 65.2 fL

Question: And the Mono (9 h)?
Answer: 6%

Question: What about the Neu (9 h) of the same molecule?
Answer: 14.4%

Question: What about the PT (9 h) of the same molecule?
Answer: 12.5 s

Question: And the Plat (9 h)?
Answer: 117.1 x10_4/uL

Question: What about the RBC (9 h) of the same molecule?
Answer: 621.8 x10_4/ul

Question: And the Ret (9 h)?
Answer: 11.2%

Question: And the WBC (9 h)?
Answer: 80.5 x10_2/uL

Question: And the KIDNEY_L (9 h)?
Answer: 0.9 g

Question: And the KIDNEY_R (9 h)?
Answer: 0.9 g

Question: What about the KIDNEY_TOTAL (9 h) of the same molecule?
Answer: 1.8 g

Question: And the LIVER (9 h)?
Answer: 7.9 g

Question: And the ALP (9 h)?
Answer: 917.4 IU/L

Question: And the ALT (9 h)?
Answer: 32.8 IU/L

Question: And the AST (9 h)?
Answer: 62.4 IU/L

Question: What about the BUN (9 h) of the same molecule?
Answer: 12.6 mg/dL

Question: What about the CRE (9 h) of the same molecule?
Answer: 0.6 mg/dL

Question: And the Ca (9 h)?
Answer: 10.6 mg/dL

Question: What about the Cl (9 h) of the same molecule?
Answer: 107.2 meq/L

Question: What about the DBIL (9 h) of the same molecule?
Answer: 0.018 mg/dL

Question: What about the GLC (9 h) of the same molecule?
Answer: 234 mg/dL

Question: And the IP (9 h)?
Answer: 9.5 mg/dL

Question: And the K (9 h)?
Answer: 5 meq/L

Question: And the LDH (9 h)?
Answer: 72 IU/L

Question: What about the Na (9 h) of the same molecule?
Answer: 138.2 meq/L

Question: And the PL (9 h)?
Answer: 137.8 mg/dL

Question: And the RALB (9 h)?
Answer: 4 g/dL

Question: And the TBIL (9 h)?
Answer: 0.4 mg/dL

Question: And the TC (9 h)?
Answer: 77.8 mg/dL

Question: What about the TG (9 h) of the same molecule?
Answer: 28.6 mg/dL

Question: And the TP (9 h)?
Answer: 5.4 g/dL

Question: What about the gamma-GTP (9 h) of the same molecule?
Answer: 1 IU/L

Question: What about the TERMINAL_BW (24 h) of the same molecule?
Answer: 205.9 g

Question: And the APTT (24 h)?
Answer: 17.2 s

Question: And the Bas (24 h)?
Answer: 0%

Question: And the Eos (24 h)?
Answer: 1%

Question: And the Fbg (24 h)?
Answer: 216.6 mg/dL

Question: And the Hb (24 h)?
Answer: 13.8 g/dL

Question: And the Ht (24 h)?
Answer: 40.7%

Question: What about the Lym (24 h) of the same molecule?
Answer: 69%

Question: What about the MCHC (24 h) of the same molecule?
Answer: 33.7%

Question: What about the MCV (24 h) of the same molecule?
Answer: 64.1 fL

Question: And the Mono (24 h)?
Answer: 6.8%

Question: What about the Neu (24 h) of the same molecule?
Answer: 23.4%

Question: What about the PT (24 h) of the same molecule?
Answer: 12 s

Question: What about the Plat (24 h) of the same molecule?
Answer: 116.2 x10_4/uL

Question: And the RBC (24 h)?
Answer: 636.2 x10_4/ul

Question: What about the Ret (24 h) of the same molecule?
Answer: 10%

Question: What about the WBC (24 h) of the same molecule?
Answer: 104.6 x10_2/uL

Question: What about the KIDNEY_L (24 h) of the same molecule?
Answer: 0.9 g

Question: And the KIDNEY_R (24 h)?
Answer: 0.9 g

Question: And the KIDNEY_TOTAL (24 h)?
Answer: 1.9 g

Question: What about the LIVER (24 h) of the same molecule?
Answer: 10.2 g

Question: And the ALP (24 h)?
Answer: 976.6 IU/L

Question: And the ALT (24 h)?
Answer: 37.2 IU/L

Question: And the AST (24 h)?
Answer: 66.8 IU/L

Question: What about the BUN (24 h) of the same molecule?
Answer: 20.8 mg/dL

Question: What about the CRE (24 h) of the same molecule?
Answer: 0.6 mg/dL

Question: And the Ca (24 h)?
Answer: 10.7 mg/dL

Question: And the Cl (24 h)?
Answer: 106.6 meq/L

Question: And the DBIL (24 h)?
Answer: 0.024 mg/dL

Question: And the GLC (24 h)?
Answer: 185.6 mg/dL

Question: And the IP (24 h)?
Answer: 6.6 mg/dL

Question: What about the K (24 h) of the same molecule?
Answer: 4.9 meq/L

Question: And the LDH (24 h)?
Answer: 105.6 IU/L

Question: And the Na (24 h)?
Answer: 140.4 meq/L

Question: And the PL (24 h)?
Answer: 148 mg/dL

Question: What about the RALB (24 h) of the same molecule?
Answer: 3.9 g/dL

Question: What about the TBIL (24 h) of the same molecule?
Answer: 0.3 mg/dL

Question: And the TC (24 h)?
Answer: 81.6 mg/dL

Question: What about the TG (24 h) of the same molecule?
Answer: 110.6 mg/dL

Question: What about the TP (24 h) of the same molecule?
Answer: 5.4 g/dL

Question: And the gamma-GTP (24 h)?
Answer: 1.8 IU/L
